How the values were obtained:
Type in all cases: in vivo
[1] = system: common ragweed (Ambrosia artemisiifolia L., AMBEL); experiment: Pre-emerge greenhouse herbicide activity screening, phytotoxicity rating; settings: 14 days after application
Method in brief: (§1)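 Efficacy scores (0 = no damage; 100 = every plant killed) came from visual inspection 14 days after spraying. Compounds were delivered in acetone to sandy loam pots at 15-1000 g ai/ha, pre- or post-emergence.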

[2] = system: large crabgrass (Digitaria sanguinalis, DIGSA); experiment: as above; settings: 14 days after application
Method in brief: as §1

[3] = system: barnyardgrass (Echinochloa crus-galli, ECHCG); experiment: as above; settings: 14 days after application
Method in brief: as §1

[4] = system: velvetleaf (Abutilon theophrasti, ABUTH); experiment: as above; settings: 14 days after application
Method in brief: as §1

[5] = system: green foxtail (Setaria viridis, SETVI); experiment: as above; settings: 14 days after application
Method in brief: as §1

[6] = system: sicklepod (Cassia obtusifolia, CASOB); experiment: as above; settings: 14 days after application
Method in brief: as §1

[7] = system: lambsquarters (Chenopodium album, CHEAL); experiment: as above; settings: 14 days after application
Method in brief: as §1

[8] = system: ivyleaf morningglory (Ipomoea hederacea, IPOHE); experiment: as above; settings: 14 days after application
Method in brief: as §1

[9] = system: redroot pigweed (Amaranthus retroflexus, AMARE); experiment: as above; settings: 14 days after application
Method in brief: as §1

[10] = system: johnsongrass (Sorghum halepense, SORHA); experiment: as above; settings: 14 days after application
Method in brief: as §1

[11] = system: field corn (Zea mays L., var. Dekalb 535, CORN); experiment: Post-emerge greenhouse screening, crop safety / corn selectivity (phytotoxicity rating); settings: for CORN crop damage, phytotoxicity rating (0-100 scale): 14 days after application
Method in brief: as §1

[12] = system: soybean (Glycine max L., var. Pella 86, SOY); experiment: Post-emerge greenhouse screening, crop safety (phytotoxicity rating); settings: 14 days after application
Method in brief: as §1

[13] = system: upland rice (Oryza sp., var.Tebonnet, RICE); experiment: as above; settings: 14 days after application
Method in brief: as §1

[14] = system: common ragweed (Ambrosia artemisiifolia L., AMBEL); experiment: Post-emerge greenhouse herbicide activity screening, phytotoxicity rating
Method in brief: as §1

[15] = system: large crabgrass (Digitaria sanguinalis, DIGSA); experiment: as above; settings: 14 days after application
Method in brief: as §1

[16] = system: barnyardgrass (Echinochloa crus-galli, ECHCG); experiment: as above; settings: 14 days after application
Method in brief: as §1

[17] = system: velvetleaf (Abutilon theophrasti, ABUTH); experiment: as above; settings: 14 days after application
Method in brief: as §1

[18] = system: green foxtail (Setaria viridis, SETVI); experiment: as above
Method in brief: as §1

[19] = system: sicklepod (Cassia obtusifolia, CASOB); experiment: as above
Method in brief: as §1

[20] = system: lambsquarters (Chenopodium album, CHEAL); experiment: as above
Method in brief: as §1

[21] = system: ivyleaf morningglory (Ipomoea hederacea, IPOHE); experiment: as above; settings: 14 days after application
Method in brief: as §1

[22] = system: redroot pigweed (Amaranthus retroflexus, AMARE); experiment: as above
Method in brief: as §1

[23] = system: johnsongrass (Sorghum halepense, SORHA); experiment: as above; settings: 14 days after application
Method in brief: as §1

[24] = system: soybean (Glycine max L., var. Pella 86, SOY); experiment: Pre-emerge greenhouse screening, crop safety (phytotoxicity rating); settings: 14 days after application
Method in brief: as §1

[25] = system: upland rice (Oryza sp., var.Tebonnet, RICE); experiment: as above; settings: 14 days after application
Method in brief: as §1

[26] = system: field corn (Zea mays L., var. Dekalb 535, CORN); experiment: as above; settings: 14 days after application
Method in brief: as §1

[27] = 125 g ai/ha, 14 days after application
[28] = 250 g ai/ha, 14 days after application

Fc1cc(Cl)c(Oc2ncccn2)cc1-c1nn2c(c1Br)CCCC2 [Compound 6-2]
25: SOY crop damage, phytotoxicity rating (0-100 scale) ([24]; 125 g ai/ha)
95: RICE crop damage, phytotoxicity rating (0-100 scale) ([13]; 125 g ai/ha) | ECHCG phytotoxicity rating (0-100 scale) ([16]; 250 g ai/ha) | SORHA phytotoxicity rating (0-100 scale) ([23]; 250 g ai/ha)
100: AMBEL phytotoxicity rating (0-100 scale) ([1]; 250 g ai/ha) | DIGSA phytotoxicity rating (0-100 scale) ([2]; 125 g ai/ha) | DIGSA phytotoxicity rating (0-100 scale) ([2]; 250 g ai/ha) | ECHCG phytotoxicity rating (0-100 scale) ([3]; 250 g ai/ha) | ABUTH phytotoxicity rating (0-100 scale) ([4]; 125 g ai/ha) | ABUTH phytotoxicity rating (0-100 scale) ([4]; 250 g ai/ha) | SETVI phytotoxicity rating (0-100 scale) ([5]; 125 g ai/ha) | SETVI phytotoxicity rating (0-100 scale) ([5]; 250 g ai/ha) | CASOB phytotoxicity rating (0-100 scale) ([6]; 125 g ai/ha) | CASOB phytotoxicity rating (0-100 scale) ([6]; 250 g ai/ha) | CHEAL phytotoxicity rating (0-100 scale) ([7]; 125 g ai/ha) | CHEAL phytotoxicity rating (0-100 scale) ([7]; 250 g ai/ha) | IPOHE phytotoxicity rating (0-100 scale) ([8]; 250 g ai/ha) | AMARE phytotoxicity rating (0-100 scale) ([9]; 125 g ai/ha) | AMARE phytotoxicity rating (0-100 scale) ([9]; 250 g ai/ha) | SORHA phytotoxicity rating (0-100 scale) ([10]; 125 g ai/ha) | SORHA phytotoxicity rating (0-100 scale) ([10]; 250 g ai/ha) | ABUTH phytotoxicity rating (0-100 scale) ([17]; 125 g ai/ha) | ABUTH phytotoxicity rating (0-100 scale) ([17]; 250 g ai/ha) | SETVI phytotoxicity rating (0-100 scale) ([18]; 31.3 g ai/ha) | SETVI phytotoxicity rating (0-100 scale) ([18]; 62.5 g ai/ha) | SETVI phytotoxicity rating (0-100 scale) [18, 27] | SETVI phytotoxicity rating (0-100 scale) [18, 28] | CASOB phytotoxicity rating (0-100 scale) ([19]; 31.3 g ai/ha) | CASOB phytotoxicity rating (0-100 scale) ([19]; 62.5 g ai/ha) | CASOB phytotoxicity rating (0-100 scale) [19, 27] | CASOB phytotoxicity rating (0-100 scale) [19, 28] | CHEAL phytotoxicity rating (0-100 scale) ([20]; 31.3 g ai/ha) | CHEAL phytotoxicity rating (0-100 scale) ([20]; 62.5 g ai/ha) | CHEAL phytotoxicity rating (0-100 scale) [20, 27] | CHEAL phytotoxicity rating (0-100 scale) [20, 28] | IPOHE phytotoxicity rating (0-100 scale) ([21]; 125 g ai/ha) | IPOHE phytotoxicity rating (0-100 scale) ([21]; 250 g ai/ha) | AMARE phytotoxicity rating (0-100 scale) ([22]; 31.3 g ai/ha) | AMARE phytotoxicity rating (0-100 scale) ([22]; 62.5 g ai/ha) | AMARE phytotoxicity rating (0-100 scale) [22, 27] | AMARE phytotoxicity rating (0-100 scale) [22, 28]
80: AMBEL phytotoxicity rating (0-100 scale) ([14]; 31.3 g ai/ha) | DIGSA phytotoxicity rating (0-100 scale) ([15]; 250 g ai/ha) | SORHA phytotoxicity rating (0-100 scale) ([23]; 125 g ai/ha)
3: CORN selectivity, phytotoxicity rating (0-100 scale) ([11]; 31.3 g ai/ha)
15: CORN crop damage, phytotoxicity rating (0-100 scale) ([11]; 125 g ai/ha) | CORN crop damage, phytotoxicity rating (0-100 scale) ([11]; 250 g ai/ha)
99: AMBEL phytotoxicity rating (0-100 scale) ([1]; 125 g ai/ha) | ECHCG phytotoxicity rating (0-100 scale) ([3]; 125 g ai/ha) | SOY crop damage, phytotoxicity rating (0-100 scale) ([12]; 125 g ai/ha) | SOY crop damage, phytotoxicity rating (0-100 scale) ([12]; 250 g ai/ha)
85: IPOHE phytotoxicity rating (0-100 scale) ([8]; 125 g ai/ha) | AMBEL phytotoxicity rating (0-100 scale) ([14]; 62.5 g ai/ha) | AMBEL phytotoxicity rating (0-100 scale) [14, 27]
98: RICE crop damage, phytotoxicity rating (0-100 scale) ([13]; 250 g ai/ha)
60: RICE crop damage, phytotoxicity rating (0-100 scale) ([25]; 125 g ai/ha)
90: AMBEL phytotoxicity rating (0-100 scale) [14, 28] | ECHCG phytotoxicity rating (0-100 scale) ([16]; 125 g ai/ha)
75: DIGSA phytotoxicity rating (0-100 scale) ([15]; 125 g ai/ha) | RICE crop damage, phytotoxicity rating (0-100 scale) ([25]; 250 g ai/ha)
10: CORN selectivity, phytotoxicity rating (0-100 scale) ([11]; 62.5 g ai/ha)
40: SOY crop damage, phytotoxicity rating (0-100 scale) ([24]; 250 g ai/ha) | CORN crop damage, phytotoxicity rating (0-100 scale) ([26]; 250 g ai/ha)
20: CORN crop damage, phytotoxicity rating (0-100 scale) ([26]; 125 g ai/ha)

N#Cc1c(-c2cc(Oc3ncccn3)c(Cl)cc2F)nn2c1CCCC2 [Compound 6-17]
0: CASOB phytotoxicity rating (0-100 scale) ([6]; 125 g ai/ha) | IPOHE phytotoxicity rating (0-100 scale) ([8]; 125 g ai/ha) | IPOHE phytotoxicity rating (0-100 scale) ([8]; 250 g ai/ha) | CORN crop damage, phytotoxicity rating (0-100 scale) ([11]; 125 g ai/ha) | DIGSA phytotoxicity rating (0-100 scale) ([15]; 125 g ai/ha) | SORHA phytotoxicity rating (0-100 scale) ([23]; 125 g ai/ha) | SOY crop damage, phytotoxicity rating (0-100 scale) ([24]; 125 g ai/ha) | SOY crop damage, phytotoxicity rating (0-100 scale) ([24]; 250 g ai/ha) | CORN crop damage, phytotoxicity rating (0-100 scale) ([26]; 125 g ai/ha) | CORN crop damage, phytotoxicity rating (0-100 scale) ([26]; 250 g ai/ha)
70: SOY crop damage, phytotoxicity rating (0-100 scale) ([12]; 125 g ai/ha) | SOY crop damage, phytotoxicity rating (0-100 scale) ([12]; 250 g ai/ha) | CASOB phytotoxicity rating (0-100 scale) [19, 27]
80: RICE crop damage, phytotoxicity rating (0-100 scale) ([13]; 125 g ai/ha) | RICE crop damage, phytotoxicity rating (0-100 scale) ([13]; 250 g ai/ha)
30: SORHA phytotoxicity rating (0-100 scale) ([23]; 250 g ai/ha)
95: SORHA phytotoxicity rating (0-100 scale) ([10]; 125 g ai/ha) | CASOB phytotoxicity rating (0-100 scale) [19, 28]
5: CORN crop damage, phytotoxicity rating (0-100 scale) ([11]; 250 g ai/ha)
99: DIGSA phytotoxicity rating (0-100 scale) ([2]; 125 g ai/ha)
25: AMBEL phytotoxicity rating (0-100 scale) ([1]; 250 g ai/ha) | CASOB phytotoxicity rating (0-100 scale) ([6]; 250 g ai/ha) | DIGSA phytotoxicity rating (0-100 scale) ([15]; 250 g ai/ha) | RICE crop damage, phytotoxicity rating (0-100 scale) ([25]; 125 g ai/ha)
100: DIGSA phytotoxicity rating (0-100 scale) ([2]; 250 g ai/ha) | ABUTH phytotoxicity rating (0-100 scale) ([4]; 250 g ai/ha) | SETVI phytotoxicity rating (0-100 scale) ([5]; 125 g ai/ha) | SETVI phytotoxicity rating (0-100 scale) ([5]; 250 g ai/ha) | CHEAL phytotoxicity rating (0-100 scale) ([7]; 125 g ai/ha) | CHEAL phytotoxicity rating (0-100 scale) ([7]; 250 g ai/ha) | AMARE phytotoxicity rating (0-100 scale) ([9]; 125 g ai/ha) | AMARE phytotoxicity rating (0-100 scale) ([9]; 250 g ai/ha) | ABUTH phytotoxicity rating (0-100 scale) ([17]; 125 g ai/ha) | ABUTH phytotoxicity rating (0-100 scale) ([17]; 250 g ai/ha) | CHEAL phytotoxicity rating (0-100 scale) [20, 27] | CHEAL phytotoxicity rating (0-100 scale) [20, 28] | IPOHE phytotoxicity rating (0-100 scale) ([21]; 125 g ai/ha) | IPOHE phytotoxicity rating (0-100 scale) ([21]; 250 g ai/ha) | AMARE phytotoxicity rating (0-100 scale) [22, 27] | AMARE phytotoxicity rating (0-100 scale) [22, 28]
65: ECHCG phytotoxicity rating (0-100 scale) ([16]; 250 g ai/ha)
75: AMBEL phytotoxicity rating (0-100 scale) [14, 28]
85: ABUTH phytotoxicity rating (0-100 scale) ([4]; 125 g ai/ha)
35: AMBEL phytotoxicity rating (0-100 scale) ([1]; 125 g ai/ha) | RICE crop damage, phytotoxicity rating (0-100 scale) ([25]; 250 g ai/ha)
98: ECHCG phytotoxicity rating (0-100 scale) ([3]; 250 g ai/ha) | SORHA phytotoxicity rating (0-100 scale) ([10]; 250 g ai/ha)
60: ECHCG phytotoxicity rating (0-100 scale) ([3]; 125 g ai/ha) | AMBEL phytotoxicity rating (0-100 scale) [14, 27] | ECHCG phytotoxicity rating (0-100 scale) ([16]; 125 g ai/ha)
90: SETVI phytotoxicity rating (0-100 scale) [18, 27] | SETVI phytotoxicity rating (0-100 scale) [18, 28]

Reference: patent US6613718B2, “Aryl ether derivatives and processes for their preparation and herbicidal and desiccant compositions containing them” (Ishihara Sangyo Kaisha, Ltd., priority 2001, dated 2003)
